Assay results taken from ChEMBL document CHEMBL1201862, “PubChem BioAssay data set” (2004).
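All cell lines were grown in 96-well plates and treated with compound for 48 hours. Abbreviation: GI50, concentration required for 50% inhibition of growth.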 The source made the active and inactive calls. Rule as the data show it: active = GI50 up to about 1.1 µM and inactive = higher.

Experiments:
Assay in all cases: NCI-60 cell line screen, 48 h
A549 = system: A549
CAKI-1 = system: CAKI-1
HCT-116 = system: HCT-116
HL-60 = system: HL-60
K562 = system: K562
M14 = system: M14
NCI-H460 = system: NCI-H460
OVCAR-3 = system: OVCAR-3
OVCAR-5 = system: OVCAR-5
RPMI-8226 = system: RPMI-8226
RXF 393 = system: RXF 393
SF-268 = system: SF-268
SK-OV-3 = system: SK-OV-3
SNB-19 = system: SNB-19
SW-620 = system: SW-620
U-251 = system: U-251
UACC-257 = system: UACC-257
UACC-62 = system: UACC-62
SK-MEL-2 = system: SK-MEL-2
A498 = system: A498

Measured: GI50

CN(C)CC(CO)(CN(C)C)CN(C)C
inactive: A549 > 100 µM | CAKI-1 > 100 µM | HCT-116 > 100 µM | HL-60 > 100 µM | K562 > 100 µM | M14 > 100 µM | NCI-H460 > 100 µM | OVCAR-3 > 100 µM | OVCAR-5 > 100 µM | RPMI-8226 > 100 µM | RXF 393 > 100 µM | SF-268 > 100 µM | SK-OV-3 > 100 µM | SNB-19 > 100 µM | SW-620 > 100 µM | U-251 > 100 µM | UACC-257 > 100 µM | UACC-62 > 100 µM

O=c1[nH]cnc2c(COCCCO)c[nH]c12
inactive: A549 > 100 µM | CAKI-1 > 100 µM | HCT-116 > 100 µM | HL-60 > 100 µM | K562 > 100 µM | M14 > 100 µM | OVCAR-3 > 100 µM | OVCAR-5 61.5 µM | RPMI-8226 > 100 µM | RXF 393 > 100 µM | SF-268 > 100 µM | SK-MEL-2 > 100 µM | SK-OV-3 > 100 µM | SNB-19 > 100 µM | SW-620 > 100 µM | U-251 > 100 µM | UACC-257 > 100 µM | UACC-62 > 100 µM

O=C(CCC(NC(=O)OCc1ccccc1)C(=O)OCc1ccccc1)Nc1cccc(OCc2ccccc2)c1 (stereo unspecified)
inactive: A549 35.7 µM | CAKI-1 31.2 µM | HCT-116 19.2 µM | HL-60 15.4 µM | K562 24.2 µM | M14 20.4 µM | NCI-H460 23.6 µM | OVCAR-3 22.3 µM | OVCAR-5 28.6 µM | RXF 393 23.8 µM | SF-268 28.6 µM | SK-OV-3 67.3 µM | SNB-19 51.3 µM | SW-620 33.6 µM | U-251 30.3 µM | UACC-257 23.7 µM | UACC-62 32.8 µM

c1ccc(/N=C(\N2CCCCC2)N(CCN2CCCCC2)c2ccccc2)cc1
inactive: A549 2.11 µM | CAKI-1 3.15 µM | M14 1.5 µM | OVCAR-5 1.82 µM | SK-MEL-2 1.76 µM | SK-OV-3 1.65 µM | SNB-19 3.78 µM | SW-620 1.8 µM | U-251 1.39 µM | UACC-257 1.82 µM
active: HCT-116 0.0736 µM | HL-60 0.277 µM | K562 0.254 µM | NCI-H460 0.274 µM | OVCAR-3 0.401 µM | RPMI-8226 0.192 µM

COc1nc2c(N3CCCC3)nc(N3CCNCC3)nc2nc1NCc1ccccc1
active: HCT-116 1.05 µM | OVCAR-3 0.755 µM
inactive: A549 2.01 µM | CAKI-1 2.38 µM | HL-60 1.68 µM | K562 1.67 µM | M14 1.65 µM | NCI-H460 1.95 µM | OVCAR-5 2.61 µM | RPMI-8226 1.69 µM | RXF 393 1.28 µM | SF-268 2.03 µM | SK-MEL-2 1.66 µM | SK-OV-3 2.05 µM | SNB-19 1.71 µM | SW-620 2.77 µM | U-251 1.35 µM | UACC-257 1.74 µM | UACC-62 1.86 µM

CN(c1ccc(C(=O)c2ccc(N(C)S(C)(=O)=O)cc2)cc1)S(C)(=O)=O
inactive: A498 > 100 µM | A549 > 100 µM | CAKI-1 > 100 µM | HCT-116 > 100 µM | HL-60 76.4 µM | K562 49.3 µM | NCI-H460 > 100 µM | OVCAR-5 > 100 µM | RPMI-8226 > 100 µM | SF-268 > 100 µM | SK-MEL-2 > 100 µM | SK-OV-3 > 100 µM | SNB-19 > 100 µM | SW-620 > 100 µM | U-251 > 100 µM | UACC-257 48.9 µM | UACC-62 > 100 µM

CC(C)N(C(=O)C1(O)c2ccccc2C=Cc2ccccc21)C(C)C
inactive: A498 16.3 µM | A549 19.9 µM | CAKI-1 24.7 µM | HCT-116 17.5 µM | HL-60 1.92 µM | M14 19 µM | OVCAR-3 16.9 µM | OVCAR-5 14.4 µM | RPMI-8226 35.9 µM | SF-268 21.5 µM | SK-MEL-2 17.1 µM | SK-OV-3 25.3 µM | SNB-19 19.9 µM | SW-620 17.3 µM | U-251 16.8 µM | UACC-62 15.4 µM

O=C1Oc2ccccc2C(=O)/C1=C\NC(=S)c1ccncc1
inactive: A549 > 100 µM | CAKI-1 51.3 µM | HCT-116 > 100 µM | HL-60 3.35 µM | M14 > 100 µM | NCI-H460 57.7 µM | OVCAR-3 71.6 µM | OVCAR-5 > 100 µM | SK-MEL-2 42.3 µM | SK-OV-3 > 100 µM | SNB-19 96.8 µM | SW-620 11 µM | U-251 > 100 µM | UACC-257 > 100 µM | UACC-62 > 100 µM
